Data taken from PubChem BioAssay AID264 (DTP/NCI, 2004).
“And” between values parts separate entries of the source, which are not always exact repeats. Equal entries are not always repeated. Inconclusive results are not listed.

Test system: nude mice, LX-1 lung xenograft intrarenal, tumor weight T/C
Assay: NCI In Vivo Anticancer Drug Screen. Data for tumor model Human Lung LX-1 Xenograft (intrarenal inoculation) in NU/NU Swiss (nude) mice
Conditions: endpoint: mean tumor weight change, higher = larger tumour
Summary of the method: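 Tumor-bearing mice receive test compound or vehicle; tumor size is then measured in each group. The treated value is divided by the vehicle value to give T/C.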

[1] = dose: 150.0 mg/kg/injection, schedule: Q04DX003 (sc), vehicle: saline with Tween-80
[2] = dose: 300.0 mg/kg/injection, schedule: Q04DX003 (sc), vehicle: saline with Tween-80
[3] = dose: 1200.0 mg/kg/injection, schedule: Q04DX003 (sc), vehicle: saline with Tween-80
[4] = dose: 600.0 mg/kg/injection, schedule: Q04DX003 (sc), vehicle: saline with Tween-80
[5] = dose: 300.0 mg/kg/injection, schedule: Q04DX003 (sc), vehicle: Klucel (hydroxypropylcellulose) (HPC)
[6] = dose: 600.0 mg/kg/injection, schedule: Q04DX003 (sc), vehicle: Klucel (hydroxypropylcellulose) (HPC)
[7] = dose: 1200.0 mg/kg/injection, schedule: Q04DX003 (sc), vehicle: Klucel (hydroxypropylcellulose) (HPC)
[8] = dose: 200.0 mg/kg/injection, schedule: Q04DX003 (sc), vehicle: saline with Tween-80
[9] = dose: 400.0 mg/kg/injection, schedule: Q04DX003 (sc), vehicle: saline with Tween-80
[10] = dose: 800.0 mg/kg/injection, schedule: Q04DX003 (sc), vehicle: saline with Tween-80
[11] = dose: 50.0 mg/kg/injection, schedule: Q04DX003 (sc), vehicle: saline with Tween-80
[12] = dose: 100.0 mg/kg/injection, schedule: Q04DX003 (sc), vehicle: saline with Tween-80
[13] = dose: 75.0 mg/kg/injection, schedule: Q04DX003 (sc), vehicle: saline with Tween-80

## CC(C)[NH-].CC(C)[NH-].O.O.[Cl][Pt+2][Cl]
dose: 3.12 mg/kg/injection, schedule: Q01DX010 (sc), vehicle: dextrose
  T/C: 62 % of control
dose: 6.25 mg/kg/injection, schedule: Q01DX010 (sc), vehicle: dextrose
  T/C: 60 % of control
dose: 12.5 mg/kg/injection, schedule: Q01DX010 (sc), vehicle: dextrose
  T/C: 53 % of control
dose: 25.0 mg/kg/injection, schedule: Q01DX010 (sc), vehicle: dextrose
  T/C: 64 % of control

## C[C@]12CC[C@H](O)CC1=CC[C@@H]1[C@@H]2CC[C@]2(C)C(=O)CC[C@@H]12
[1]
  T/C: 116 % of control
[2]
  T/C: 115 % of control
[3]
  T/C: 107 % of control

## CC[C@H](CC[C@@H](C)C1CC[C@H]2[C@@H]3CC=C4C[C@@H](OP(=O)(N5CC5)N5CC5)CC[C@]4(C)[C@H]3CC[C@]12C)C(C)C (stereo partly specified)
[2]
  T/C: 57 % of control
[4]
  T/C: 78 % of control
[3]
  T/C: 83 % of control
dose: 2400.0 mg/kg/injection, schedule: Q04DX003 (sc), vehicle: saline with Tween-80
  T/C: 80 % of control

## Cc1cc(N(CC(C)Br)CC(C)Br)ccc1N=Nc1ccccc1C(=O)O (stereo unspecified)
dose: 3.13 mg/kg/injection, schedule: Q01DX010 (sc), vehicle: saline with Tween-80
  T/C: 85 % of control
dose: 6.25 mg/kg/injection, schedule: Q01DX010 (sc), vehicle: saline with Tween-80
  T/C: 151 % of control

## CCc1ccccc1N1CCN(C(=O)c2cc(OC)c(OC)c(OC)c2)CC1
[5]
  T/C: 62 % of control
[6]
  T/C: 34 % of control
[7]
  T/C: 33 % of control
dose: 2400.0 mg/kg/injection, schedule: Q04DX003 (sc), vehicle: Klucel (hydroxypropylcellulose) (HPC)
  T/C: 30 % of control

## COc1ccc2c(c1)CCn1c(C)c(COC(=O)NC(C)C)c(COC(=O)NC(C)C)c1-2
dose: 37.5 mg/kg/injection, schedule: Q04DX003 (sc), vehicle: distilled water + Tween-80
  T/C: 65 % of control
dose: 75.0 mg/kg/injection, schedule: Q04DX003 (sc), vehicle: distilled water + Tween-80
  T/C: 64 % of control
dose: 150.0 mg/kg/injection, schedule: Q04DX003 (sc), vehicle: distilled water + Tween-80
  T/C: 55 % of control
dose: 300.0 mg/kg/injection, schedule: Q04DX003 (sc), vehicle: distilled water + Tween-80
  T/C: 63 % of control

## Cc1ccc(N)c(N)c1
[8]
  T/C: 57 % of control
[9]
  T/C: 74 % of control
[10]
  T/C: 57 % of control

## CCO/C=C1\SC(=S)N(c2ccccc2C)C1=O
dose: 100.0 mg/kg/injection, schedule: Q01DX010 (sc), vehicle: saline with Tween-80
  T/C: 26 % of control
dose: 200.0 mg/kg/injection, schedule: Q01DX010 (sc), vehicle: saline with Tween-80
  T/C: 64 % of control
dose: 400.0 mg/kg/injection, schedule: Q01DX010 (sc), vehicle: saline with Tween-80
  T/C: 76 % of control
dose: 800.0 mg/kg/injection, schedule: Q01DX010 (sc), vehicle: saline with Tween-80
  T/C: 89 % of control

## O=CC(=O)c1ccc(O)cc1
dose: 150.0 mg/kg/injection, schedule: Q04DX003 (sc), vehicle: saline
  T/C: 51 % of control
dose: 300.0 mg/kg/injection, schedule: Q04DX003 (sc), vehicle: saline
  T/C: 49 % of control
dose: 600.0 mg/kg/injection, schedule: Q04DX003 (sc), vehicle: saline
  T/C: 58 % of control

## Clc1ccc2nnnn2n1
[11]
  T/C: 72 % of control
[12]
  T/C: 88 % of control
[8]
  T/C: 85 % of control
[9]
  T/C: 93 % of control

## Cn1cnc([N+](=O)[O-])c1Sc1ncn[nH]1
dose: 100.0 mg/kg/injection, schedule: Q04DX003 (sc), vehicle: suspension in saline
  T/C: 96 % of control
dose: 200.0 mg/kg/injection, schedule: Q04DX003 (sc), vehicle: suspension in saline
  T/C: 96 % of control
dose: 400.0 mg/kg/injection, schedule: Q04DX003 (sc), vehicle: suspension in saline
  T/C: 32 % of control

## CC(=O)OCC(=O)[C@@]12OC(C)(C)O[C@@H]1C[C@H]1[C@@H]3CC(C=O)=C4C=C(OCCCl)CC[C@]4(C)[C@@]3(F)[C@@H](O)C[C@@]12C
dose: 25.0 mg/kg/injection, schedule: Q04DX003 (sc), vehicle: Klucel (hydroxypropylcellulose) (HPC)
  T/C: 79 % of control
dose: 50.0 mg/kg/injection, schedule: Q04DX003 (sc), vehicle: Klucel (hydroxypropylcellulose) (HPC)
  T/C: 72 % of control

## CN=S(=O)(OCCCCCOS(=O)(=NC)c1ccc(C)cc1)c1ccc(C)cc1 (stereo unspecified)
dose: 37.5 mg/kg/injection, schedule: Q04DX003 (sc), vehicle: saline with Tween-80
  T/C: 72 % of control
[13]
  T/C: 83 % of control
[1]
  T/C: 88 % of control
[2]
  T/C: 30 % of control

## COc1cccc2c1C(=O)c1c(O)c3c(c(O)c1C2=O)CC(O)(C(=O)CO)CC3OC1CC(N)C(O)C(C)O1 (stereo unspecified)
dose: 12.0 mg/kg/injection, schedule: Q01DX010 (sc), vehicle: saline
  T/C: 71 % of control
dose: 24.0 mg/kg/injection, schedule: Q01DX010 (sc), vehicle: saline
  T/C: 24 % of control
dose: 25.0 mg/kg/injection, schedule: Q01DX010 (sc), vehicle: water
  T/C: 71 % of control
dose: 37.5 mg/kg/injection, schedule: Q04DX003 (sc), vehicle: water
  T/C: 82 % of control
dose: 48.0 mg/kg/injection, schedule: Q01DX010 (sc), vehicle: saline
  T/C: 31 % of control
dose: 50.0 mg/kg/injection, schedule: Q01DX010 (sc), vehicle: water
  T/C: 71 % of control
dose: 75.0 mg/kg/injection, schedule: Q04DX003 (sc), vehicle: water
  T/C: 105 % of control
dose: 100.0 mg/kg/injection, schedule: Q01DX010 (sc), vehicle: water
  T/C: 39 % of control
dose: 150.0 mg/kg/injection, schedule: Q04DX003 (sc), vehicle: water
  T/C: 193 % of control
dose: 200.0 mg/kg/injection, schedule: Q01DX010 (sc), vehicle: water
  T/C: 11 % of control
dose: 300.0 mg/kg/injection, schedule: Q04DX003 (sc), vehicle: water
  T/C: 46 % of control

## CN=C(N)N/N=C(\C)c1ccc2c(c1)Cc1cc(/C(C)=N/NC(N)=NC)ccc1-2
dose: 12.5 mg/kg/injection, schedule: Q04DX003 (sc), vehicle: saline with Tween-80
  T/C: 99 % of control
dose: 25.0 mg/kg/injection, schedule: Q04DX003 (sc), vehicle: saline with Tween-80
  T/C: 90 % of control
[11]
  T/C: 67 % of control
[12]
  T/C: 69 % of control

## Cc1ccc2c(c1)N=C(Nc1ccccc1)N=S2(C)=O (stereo unspecified)
[12]
  T/C: 101 % of control
[8]
  T/C: 90 % of control
[9]
  T/C: 97 % of control

## C[C@@]12C(=O)OC(=O)[C@]1(C)[C@H]1CC[C@@H]2O1
dose: 1.25 mg/kg/injection, schedule: Q04DX003 (sc), vehicle: Klucel (hydroxypropylcellulose) (HPC)
  T/C: 113 % of control
dose: 2.5 mg/kg/injection, schedule: Q04DX003 (sc), vehicle: Klucel (hydroxypropylcellulose) (HPC)
  T/C: 86 % of control

## COc1cc2c[n+](C)c3c4cc5c(cc4ccc3c2cc1OC)OCO5
[12]
  T/C: 157 % of control
[8]
  T/C: 92 % of control
[10]
  T/C: 109 % of control

## Brc1ccc(C[N+]23CN4CN(CN(C4)C2)C3)cc1
[1]
  T/C: 91 % of control
[2]
  T/C: 101 % of control
[4]
  T/C: 76 % of control

## Cc1ncc(CNC(=O)N(CCCl)N=O)c(N)n1
dose: 18.75 mg/kg/injection, schedule: Q04DX003 (sc), vehicle: saline
  T/C: 61 % of control

## CCCCCCCC(=O)OCC(=O)[C@]1(O)Cc2c(O)c3c(c(O)c2[C@@H](OC2CC(N)C(O)C(C)O2)C1)C(=O)c1c(OC)cccc1C3=O (stereo partly specified)
dose: 2.0 mg/kg/injection, schedule: Q01DX010 (sc), vehicle: saline
  T/C: 104 % of control
dose: 4.0 mg/kg/injection, schedule: Q01DX010 (sc), vehicle: saline
  T/C: 173 % of control

## OCC1OC(n2cnc3c(Cl)ncnc32)C(O)C1O (stereo unspecified)
dose: 100.0 mg/kg/injection, schedule: Q01DX010 (sc), vehicle: saline
  T/C: 74 % of control
dose: 200.0 mg/kg/injection, schedule: Q01DX010 (sc), vehicle: saline
  T/C: 96 % of control and 103 % of control
dose: 400.0 mg/kg/injection, schedule: Q01DX010 (sc), vehicle: saline
  T/C: 80 % of control and 99 % of control
dose: 800.0 mg/kg/injection, schedule: Q01DX010 (sc), vehicle: saline
  T/C: 112 % of control

## C[Si](C)(C)n1nnn(-c2ccccc2)c1=O
[13]
  T/C: 94 % of control
[1]
  T/C: 105 % of control
[2]
  T/C: 107 % of control

## CN=C(N)N/N=C(\C)c1ccc2c(c1)Cc1ccccc1-2
[1]
  T/C: 152 % of control
[2]
  T/C: 117 % of control
[4]
  T/C: 106 % of control

## O=NN(CCCl)C(=O)Oc1ccc(OC(=O)N(CCCl)N=O)cc1
[5]
  T/C: 110 % of control
[6]
  T/C: 70 % of control
[7]
  T/C: 49 % of control
